Measurements as given in patent publication US12479784B2, “Trisphenol derivative” (HONSHU CHEMICAL INDUSTRY CO., LTD., priority 2020, dated 2025).

Experiments:
[1] = Evaluation Test 1: Solubility at 30° C. in ethyl lactate; format: physicochemical; settings: for Solubility (g/100 g, 30° C.): in ethyl lactate, stirred 3 hours, HPLC quantification
Experimental: (4) Conditions of solubility measurement and analysis of comparative compounds (x) and (y)
<Evaluation Test 1: Solubility at 30° C.>
For compound (C1) and compound (C2) obtained in Examples and the following two compounds having six functional groups likewise and reported as crosslinking agents, the solubility at 30° C. in ethyl lactate widely used as a resist solvent was measured. The following compounds are referred to as “comparative compound (x)” and “comparative compound (y)”.
A cross-shaped stirrer and 10 g of ethyl lactate were added to a 100 ml test tube, and after 10 g of comparative compound (x) (or (y)) was added, a siphon was attached. Under nitrogen purge, the test tube was set in a pre-conditioned water bath at 30° C. and stirred with the stirrer for 3 hours. After the stirring for 3 hours, the internal solution was sampled with a pipette, and solids were filtered off from the sampled solution through a syringe filter to put a filtrate in a 50 ml measuring flask. This was diluted to the 50 ml mark with methanol for HPLC and analyzed with a high-performance liquid chromatography analyzer. From the results obtained, comparative compound (x) (or (y)) in the filtrate was quantified using the peak area of comparative compound (x) (or (y)), and the solubility (=quantitative value (mg) of comparative compound (x) or (y)/(weight (mg) of filtrate put in 50 ml measuring flask through syringe filter-quantitative value (mg) of comparative compound (x) or (y)) was calculated.
Method of constructing calibration curve: comparative compound (x) (or (y)) used in the test was analyzed by HPLC, and an approximate straight line obtained by plotting the peak area of comparative compound (x) (or (y) on the horizontal axis and the concentration (mg/50 ml) of comparative compound (x) (or (y)) on the vertical axis with “intercept=0” was used as a calibration curve of comparative compound (x) (or (y)).

[2] = Evaluation Test 2: Low-temperature storage stability (dissolution stability) of ethyl lactate solutions; format: physicochemical; set-up: key to Solution storage test 5° C. / Solution storage test −5° C.: ∘: Completely dissolved, and neither precipitation of crystals nor separation of oily components can be visually observed.; x: Precipitation of crystals or separation of oily components can be visually observed; settings: for Solution storage test −5° C. / Solution storage test 5° C.: ethyl lactate solution; for Solution storage test −5° C.: freezer −5° C.; for Solution storage test −5° C. / Solution storage test 5° C. / Crystallization on storage, in words: 30 days; for Solution storage test 5° C.: refrigerator 5° C.; for Crystallization on storage, in words: ethyl lactate solutions, both at 5° C. and −5° C.
Experimental: <Evaluation Test 2: Low-Temperature Storage Stability (Dissolution Stability)>
In a 50 ml screw tube, 4.29 g of compound (C1), the inventive compound, and 5.71 g of ethyl lactate were placed and mixed, and the screw tube was put in a water bath set at 30° C. and stirred by shaking it by hand. Complete dissolution was visually observed, thus preparing an ethyl lactate solution with a compound (C1) concentration of 42.9 wt %.
In the same manner as for compound (C1), an ethyl lactate solution with a compound (C2) concentration of 40 wt %, an ethyl lactate solution with a compound (C2) concentration of 50 wt %, and an ethyl lactate solution with a compound (y) concentration of 40 wt % were prepared.
These solutions were subjected to solution storage tests in a refrigerator (5° C.) and a freezer (−5° C.) for 30 days.
∘: Completely dissolved, and neither precipitation of crystals nor separation of oily components can be visually observed.
x: Precipitation of crystals or separation of oily components can be visually observed.

Compound | Solubility in ethyl lactate relative to comparative compound (x) ([1]; ethyl lactate) | Solubility in ethyl lactate relative to comparative compound (y) ([1]; ethyl lactate) | Solubility (g/100 g, 30° C.) [1] [g/100 g] | Solubility (g/100 g, 30° C.) ([1]; listed as compound (C2)) | Solution storage test −5° C. ([2]; concentration 40.0 wt %) | Solution storage test 5° C. ([2]; concentration 40.0 wt %) | Solution storage test −5° C. ([2]; concentration 50.0 wt %) | Solution storage test 5° C. ([2]; concentration 50.0 wt %) | Crystallization on storage, in words [2] | Re-dissolution of precipitated crystals ([2]; test sample with precipitated crystals left at room temperature (22° C.) for one day)
COCc1cc(CCC(C)(c2cc(COC)c(O)c(C3CCCCC3)c2)c2cc(COC)c(O)c(C3CCCCC3)c2)cc(COC)c1O [Compound (C2)] | more than twice higher | more soluble | > 100 | more than 100.0 g/100 g | ∘ | ∘ | ∘ | ∘ | did not crystallize at all | –
COCc1cc(C(C)(c2cc(COC)c(O)c(COC)c2)c2cc(COC)c(O)c(COC)c2)cc(COC)c1O [(y), reference compound] | – | – | 84.0 | – | x | x | – | – | experienced crystal precipitation | did not dissolve again
COCc1cc(C(C)(C)c2ccc(C(C)(c3cc(COC)c(O)c(COC)c3)c3cc(COC)c(O)c(COC)c3)cc2)cc(COC)c1O [Comparative compound (x), reference compound] | – | – | 38.7 | – | – | – | – | – | – | –
